# Patent publication US10351598B2, “Peptide with anti-obesity and anti-diabetic efficacy and use thereof” (CAREGEN CO., LTD., priority 2016, dated 2019)
# Where “and” joins values, the source holds several entries; their conditions need not be identical. Equal entries are not always repeated.
# How the values were obtained:
# AMPK-α1 = AMPK-α1 RT-PCR in insulin resistance conditions (TNF-α); format: cell-based; conditions: reduced by TNF-α treatment, peptide treatment 16 hours
# Method: (§1) Total RNA was extracted using Qiagen RNeasy kit. For synthesis of single-stranded DNA from RNA, […] of RNA, […] of random hexamer, and DEPC-treated water were added, followed by reaction for 5 minutes at 65° C. 5× first strand buffer, 0.1 M DTT, 10 mM of dNTP, and reverse transcriptase were added to reach a total volume of […], followed by reaction at 42° C. for 1 hour. After heating at 95° C. for 5 minutes again, 10 ml of distilled water was added to make a final volume, […], of cDNA.
# (§2) PCR was conducted by mixing 3 ml of cDNA, 10 pmole of CGI 58 gene-specific primer, 10× Tag buffer, 10 mM dNTP, and i-Tag DNA synthetase. PCR conditions were: 94° C. for 30 seconds, 55-56° C. for 30 seconds, and 72° C. for 30 seconds. Cycle number genes were analyzed in the conditions in which the PCR results could be exponentially amplified. 5 ml of PCR product was obtained, electrophoresed on 1% agarose gel, and stained with ethidium bromide.
# (§3) After the insulin resistance conditions were configured by TNF-α treatment, the peptide treatment was conducted for 16 hours, followed by collection and then the resultant product was collected and the changes of respective factors were examined by RT-PCR. RT-PCR conditions are the same as in example 3.
# CGI-58 = CGI-58 RT-PCR; format: cell-based; conditions: intracellular
# Method: as §1, §2
# adiponectin = test: Adiponectin RT-PCR in insulin resistance conditions (TNF-α); format: cell-based; conditions: reduced by TNF-α treatment, peptide treatment 16 hours
# Method: as §1, §2, §3
# pHSL = test: Immunohistochemical staining with anti-pHSL antibody (lipolysis induction); format: cell-based; conditions: mouse adipose tissue, 48-72 hours
# From the text: In order to investigate a mechanism by which the peptides of the present invention stimulate the lysis of triglycerides to suppress the lipid accumulation in adipocytes, the effect of the peptides of the present invention on HSL gene expression was examined. HSL enzyme is known as a lipolytic enzyme that breaks down triglycerides into free fatty acids and glycerols when the HSL enzyme breaks down lipids in the adipose tissue.
# The mouse adipose tissue was taken and cultured in 100-mm dish (DMEM) for one day. Thereafter, the adipose tissue was cut into equal weight, transferred onto 24-well plate, treated with the peptides, and cultured for 48-72 hours. Each tissue slice was subjected to immunohistochemical staining using anti-pHSL antibody, and photographed by a fluorescent microscope.
# 3T3-L1 cells = test: Oil red O staining (lipid accumulation inhibition); format: cell-based; conditions: day 9 of differentiation induction
# Method: In order to measure the lipid accumulation inhibitory effect by the peptides of the present invention, 3T3-L1 cells were seeded in 24-well plate at 2×10^4 cells/well, followed by culture, and then the medium was exchanged with a differentiation medium containing 10 ug/ml insulin, 0.1 uM dexamethasone, and 0.5 uM IBMX, followed by treatment with the peptides having different concentrations.
# Thereafter, the medium was exchanged into a medium containing 10 ug/ml insulin every two days, and on day 9 of differentiation induction, an oil-red-red O staining assay was conducted.
# The cells were washed with PBS, immobilized by the treatment with 4% para-form aldehyde for 10 minutes, washed with distilled water, and then cultured in 60% isopropanol for 5-10 minutes. The immobilized cells were stained with an oil red solution [1% Oil Red in isopropanol was diluted in dH2O in ratio of 6:4 (vol/vol)] for 30 minutes, and then again washed with PBS. The stained cells were observed by an optical microscope, followed by washing with distilled water, and 1 ml of 100% isopropanol was added thereto, followed by stirring at 4° C. The next day, quantification was conducted at 510 nm.
# mouse adipose tissue [1] = test: Glycerol assay (lipolysis induction); format: cell-based; conditions: compared with control group NC; for secretion of glycerol: mouse adipose tissue, cultured 48-72 hours with peptide
# From the text: Adipocytes store extra energy in the form of triglycerides in lipid droplets, and when energy is needed, the triglycerides are broken down into fatty acids and glycerols by enzymes, such as adipose triglyceride lipase, HSL, and monoglyceride lipase, to produce energy, or the triglycerides are used in cell signaling or lipid synthesis. The measurement of free glycerol release is for evaluating the lytic effect of the glycerides accumulated in fact cells.
# In order to measure the lipolytic effect by the peptides of the present invention, the mouse adipose tissue was taken and cultured in 100-mm dish (DMEM) for one day. Thereafter, the adipose tissue was cut into equal weight, transferred onto 24-well plate, treated with the peptides, and cultured for 48-72 hours. Each 100 ul of the medium was collected according to the treatment period, and subjected to glycerol assay.
# GLUT4 = GLUT4 RT-PCR in insulin resistance conditions (TNF-α); format: cell-based; conditions: reduced by TNF-α treatment, peptide treatment 16 hours
# Method: as §1, §2, §3
# [2] = tested on: C57BL/6J mice fed with a high-fat diet; test: Anti-diabetic efficacy evaluation (in vivo), blood glucose after oral glucose; design: blood glucose, individual animal / blood glucose, Mean: unit not given here; conditions: for blood glucose, Mean / blood glucose, individual animal: 60% fat diet mice; for blood glucose increase by glucose: high-fat diet mice, compared with the NC group
# From the text: 6-week-old C57BL/6J mice as experimental animals were purchased from Central Lab. Animal Inc. (Seoul, Korea), and then were used for experiments after acclimatization with a normal diet for 1 week. A high-fat feed was used from Research Diets, inc. (#product D12492).
# The experimental animals were divided into a total of four groups, and three mice for each group were raised for 12 weeks.
# In addition, the experimental animals were divided into a total of […], and three mice for each group were raised for 12 weeks.
# After the pre-treatment with a peptide for 30 minutes, glucose (60 mg/300 ul distilled water) were orally administered, and then the blood glucose lowering effect over time was examined. The results are shown in FIGS. 6a to 6b and tables 5 and 6.
# IRS-1 = IRS-1 RT-PCR in insulin resistance conditions (TNF-α); format: cell-based; conditions: reduced by TNF-α treatment, peptide treatment 16 hours
# Method: as §1, §2, §3
# mouse adipose tissue [3] = test: Histological analysis, H&E staining (lipolysis induction); format: cell-based; conditions: as the concentration of the peptide increased
# Method: The mouse adipose tissue was taken and cultured in 100-mm dish (DMEM) for one day. Thereafter, the adipose tissue was cut into equal weight, transferred onto 24-well plate, treated with the peptides, and cultured for 48-72 hours. Each tissue slice was subjected to H&E staining. The photo files obtained from microscopic photographing were divided into compartments through Image J, and analyzed using a program that can compare the sizes of each compartment. Through this, the area of the total number of cells can be obtained, and the average area obtained by dividing the area by the total number of cells can also be obtained. The results may be expressed differently depending on the degree of staining. However, correction can be made by adjusting the threshold value in the beginning, and the results were obtained after the cells with relatively small areas from the comparison with the original file were removed.
# [4] = 0 min, IP 2 mg/ml 300 ul, Table 6
# [5] = 0 min, oral 2 mg/ml 300 ul, Table 6
# [6] = 10 min, IP 2 mg/ml 300 ul, Table 6
# [7] = 10 min, oral 2 mg/ml 300 ul, Table 6
# [8] = 40 min, IP 2 mg/ml 300 ul, Table 6
# [9] = 40 min, oral 2 mg/ml 300 ul, Table 6
# [10] = 80 min, IP 2 mg/ml 300 ul, Table 6
# [11] = 80 min, oral 2 mg/ml 300 ul, Table 6
# [12] = 140 min, IP 2 mg/ml 300 ul, Table 6
# [13] = 140 min, oral 2 mg/ml 300 ul, Table 6
# [14] = 200 min, IP 2 mg/ml 300 ul, Table 6
# [15] = 200 min, oral 2 mg/ml 300 ul, Table 6
# [16] = 0 min, oral 2 mg/ml 300 ul, Table 5
# [17] = 30 min, oral 2 mg/ml 300 ul, Table 5
# [18] = 60 min, oral 2 mg/ml 300 ul, Table 5
# [19] = 90 min, oral 2 mg/ml 300 ul, Table 5
# [20] = 120 min, oral 2 mg/ml 300 ul, Table 5
substance,measurement,setting,value
His-Glu-Thr-Phe-Glu (HETFE) [SEQ ID NO: 2],expression of AMPK-α1,AMPK-α1,again increased
same,expression of the lipolysis factor CGI-58,CGI-58,increased
same,expression of adiponectin,adiponectin,again increased
same,expression of hormone sensitive lipase (pHSL),pHSL,increased
same,degree of lipid accumulation in the cells,3T3-L1 cells,reduced
same,increase of secretion of glycerol,mouse adipose tissue [1]; high-concentration peptide treatment,22%
same,secretion of glycerol,mouse adipose tissue [1],increased
same,expression of the glucose transporter GLUT4,GLUT4,again increased
same,"blood glucose, Mean",[2]; [4],155.00
same,"blood glucose, individual animal",[2]; [4],145.00 and 165.00
same,"blood glucose, Mean",[2]; [5],162
same,"blood glucose, individual animal",[2]; [5],159.00 and 165.00
same,"blood glucose, Mean",[2]; [6],197.00
same,"blood glucose, individual animal",[2]; [6],203.00 and 190.00
same,"blood glucose, Mean",[2]; [7],191
same,"blood glucose, individual animal",[2]; [7],188.00 and 193.00
same,"blood glucose, Mean",[2]; [8],179.00
same,"blood glucose, individual animal",[2]; [8],162.00 and 195.00
same,"blood glucose, Mean",[2]; [9],161
same,"blood glucose, individual animal",[2]; [9],164.00 and 157.00
same,"blood glucose, Mean",[2]; [10],164.00
same,"blood glucose, individual animal",[2]; [10],170.00 and 158.00
same,"blood glucose, Mean",[2]; [11],155
same,"blood glucose, individual animal",[2]; [11],163.00 and 147.00
same,"blood glucose, Mean",[2]; [12],123.00
same,"blood glucose, individual animal",[2]; [12],130.00 and 115.00
same,"blood glucose, Mean",[2]; [13],129
same,"blood glucose, individual animal",[2]; [13],122.00 and 135.00
same,"blood glucose, Mean",[2]; [14],112.00
same,"blood glucose, individual animal",[2]; [14],129.00 and 94.00
same,"blood glucose, Mean",[2]; [15],122
same,"blood glucose, individual animal",[2]; [15],118.00 and 126.00
same,blood glucose increase by glucose,[2],reduced
Lys-Glu-Arg-Lys-Ser (KERKS) [SEQ ID NO: 1],expression of AMPK-α1,AMPK-α1,again increased
same,expression of the lipolysis factor CGI-58,CGI-58,increased
same,expression of adiponectin,adiponectin,again increased
same,expression of hormone sensitive lipase (pHSL),pHSL,increased
same,degree of lipid accumulation in the cells,3T3-L1 cells,reduced
same,secretion of glycerol,mouse adipose tissue [1],increased
same,expression of the insulin receptor signaling protein IRS-1,IRS-1,again increased
same,expression of the glucose transporter GLUT4,GLUT4,again increased
same,"blood glucose, Mean",[2]; [16],134.67
same,"blood glucose, individual animal",[2]; [16],145.00 and 165.00
same,"blood glucose, Mean",[2]; [17],163.67
same,"blood glucose, individual animal",[2]; [17],203.00 and 190.00
same,"blood glucose, Mean",[2]; [18],142.00
same,"blood glucose, individual animal",[2]; [18],162.00 and 195.00
same,"blood glucose, Mean",[2]; [19],142.67
same,"blood glucose, individual animal",[2]; [19],170.00 and 158.00
same,"blood glucose, Mean",[2]; [20],125.67
same,"blood glucose, individual animal",[2]; [20],130.00 and 115.00
same,blood glucose increase by glucose,[2],reduced
same,lipid area,mouse adipose tissue [3],reduced
same,number of adipocytes,mouse adipose tissue [3],increased
